Entries after “also recorded” stand apart in the source; their conditions may differ. Read-outs that look alike come from different tables or passages of the source. Where a SMILES comes first, the peptide text is derived from it. Where no end group is shown, it is not given here.
How the values were obtained:
target microorganisms = assay: Screen of synthesized peptides for binding to target microorganisms (targeting peptides, Tables 2 and 3); conditions: microorganism(s) the targeting peptide was identified as binding to (Table 3)
Protocol: Once noted, these peptides were batch synthesized on a multiplex peptide synthesizer, yielding 5-10 mg of each peptide that could readily be screened for biological activity (e.g., binding activity and/or antimicrobial activity.
Other suitable targeting peptides include the peptides that have been identified as binding to particular target organisms as shown in Table 3 and/or Table 4.

S. mutans [1] = tested on: S. mutans
S. mutans [2] = assay: Microbial population shift assay (mixed planktonic culture); type: cell-based, Streptococcus mutans; conditions: 10 μM peptide, 24 h, FIG. 16
Protocol: (§1) FIG. 16 illustrates the selective activity of dual-targeted and single-targeted MH-STAMPs in mixed culture. […] After incubation, cfu/mL of remaining constituent species were quantitated after plating to selective media. * indicates under 200 surviving cfu/mL recovered.
(§2) Peptide (10 μM) or mock-treatment (1×PBS) was then added and samples were incubated at 37° C. for 24 h under anaerobic conditions (80% N2, 15% CO2, 5% H2). […] Plates were then incubated 37° C. under aerobic conditions (TH plates were incubated anaerobically) and colonies counted after 24 h to determine survivors. […] Gram stains and direct microscopic observation (from select isolated colonies) were undertaken to confirm species identity (data not shown). The detection limit of the assay was 200 cfu/mL.

P. aeruginosa [3] = assay: as above; type: cell-based, Pseudomonas aeruginosa; conditions: 10 μM peptide, 24 h, FIG. 16
Protocol: as §1, §2

E. coli [4] = assay: as above; type: cell-based, Escherichia coli; conditions: 10 μM peptide, 24 h, FIG. 16
Protocol: as §1, §2

S. epidermidis [5] = assay: as above; type: cell-based, Staphylococcus epidermidis; conditions: 10 μM peptide, 24 h, FIG. 16
Protocol: as §1, §2

S. mutans [6] = assay: Post-antibiotic effect assay (growth retardation in monoculture); conditions: peptide for 10 min, then fresh medium, FIG. 15A
Protocol: (§3) Agent was then removed and fresh media returned. Culture recovery was measured over time (OD600). Plots represent the average of at least 3 independent experiments with standard deviations.
(§4) The activity and selectivity of MH-STAMPs after a 10 min incubation was determined by growth retardation experiments against targeted and untargeted bacteria in monocultures, as described previously [10, 11]. Cells from overnight cultures were diluted to ˜5×10^6 cfu/mL in MH (or TH with 1% sucrose for S. mutans), normalized by OD600 0.05-0.1 and seeded to 96-well plates. Cultures were then grown under the appropriate conditions for 2 h (3 h for S. mutans) prior to the addition of peptides for 10 min. Plates were then centrifuged at 3000×g for 5 min, the supernatants discarded, fresh medium returned (MH or TH without sucrose for S. mutans), and incubation resumed. Bacterial growth after treatment was then monitored over time by OD600.

bacteria = assay: Bacterial binding of blank peptide (data not shown)
S. mutans [7] = assay: Growth phenotype or other activity induced by peptide (Table 9); type: cell-based
S. mutans biofilms = assay: Binding of targeting peptides by fluorescent microscopy; set-up: species or system Streptococcus mutans; conditions: 25 μM peptide, 5 min; data not shown
Protocol: Binding of Targeting Peptides. The binding of peptides 1—2, 1—3, 1—4, 1—6, 2—1, and 3—1 was assessed by fluorescent microscopy. S. mutans UA159 was grown overnight and diluted 1:5000 in fresh TH with 1% sucrose before seeding to 96-well plates (flat bottom). Biofilms were grown 24 h and the spent medium replaced with 1×PBS containing 25 μM peptide. After 5 min incubation at room temperature, the supernatants were removed and the biofilms washed 2× with 1×PBS and imaged by bright-field and fluorescence microscopy (Nikon E400). Digital images were collected and analyzed for semiquantitative binding assessments with the manufacturers supplied software (SPOT, Diagnostics) (6).

E. coli [8] = assay: Post-antibiotic effect assay (growth retardation in monoculture); type: cell-based, Escherichia coli; conditions: peptide for 10 min, then fresh medium, FIG. 15E
S. aureus = assay: as above; type: cell-based, Staphylococcus aureus; conditions: peptide for 10 min, then fresh medium, FIG. 15D
P. aeruginosa [9] = assay: as above; conditions: peptide for 10 min, then fresh medium, FIG. 15B
Protocol: as §3, §4

S. epidermidis [10] = assay: as above; conditions: peptide for 10 min, then fresh medium, FIG. 15C
Protocol: as §3, §4

[11] = Library 2 STAMPs, all S. mutans isolates tested, minimum of three independent trials

1T-169 (FARVRRLHQNRILTQPLTNLKYCLRQPIYSD; synthetic novel tartgeting peptide IT-169)
Target(s) (target microorganisms): A. naeslundii, F. nucleatum,; also recorded: P. gingivalis; also recorded: S. epidermidis,; also recorded: S. gordonii, S. mitis, S. mutans,; also recorded: S. oralis, S. salivarious,; also recorded: S. sanguinis

1T-170 (AYGKVFSMDIMLSENDKLIVLRISHHSAWH; synthetic novel tartgeting peptide IT-170)
Target(s) (target microorganisms): P. gingivalis

CC[C@H](C)[C@H](NC(=O)[C@H](Cc1ccccc1)NC(=O)CCCCCCCNC(=O)[C@H](Cc1ccccc1)NC(=O)[C@H](Cc1c[nH]cn1)NC(=O)[C@H](CC(C)C)NC(=O)[C@H](Cc1c[nH]cn1)NC(=O)[C@H](Cc1ccccc1)NC(=O)[C@H](Cc1c[nH]cn1)NC(=O)[C@@H](N)Cc1ccccc1)C(=O)N[C@@H](CCCCN)C(=O)N[C@@H](Cc1c[nH]cn1)C(=O)N[C@@H](Cc1ccccc1)C(=O)N[C@H](C(=O)N[C@@H](Cc1c[nH]cn1)C(=O)N[C@@H](CCCNC(=N)N)C(=O)N[C@@H](Cc1ccccc1)C(N)=O)[C@@H](C)CC [135(LC)2_1, FHFHLHF-[NH(CH2)7CO]-FIKHFIHRF] (HELM PEPTIDE1{F.H.F.H.L.H.F.[O=C(CCCCCCCN[*:1])[*:2]].F.I.K.H.F.I.H.R.F.[am]}$$$$V2.0; N-terminus assumed)
S. mutans (MIC) (S. mutans [1]): 64 µg/mL

CC[C@H](C)[C@H](NC(=O)[C@H](Cc1ccccc1)NC(=O)CCCCCCCNC(=O)[C@H](CCCCNC(=O)CNC(=O)CNC(=O)CNC(=O)[C@H](Cc1c[nH]cn1)NC(=O)[C@H](CCCCN)NC(=O)[C@H](CCCNC(=N)N)NC(=O)[C@H](Cc1c[nH]cn1)NC(=O)[C@H](CCCCN)NC(=O)[C@H](CCCNC(=N)N)NC(=O)[C@H](Cc1c[nH]cn1)NC(=O)[C@H](CCCCN)NC(=O)[C@H](CCCNC(=N)N)NC(=O)[C@H](Cc1c[nH]cn1)NC(=O)[C@H](CCCCN)NC(=O)[C@@H](N)CCCCN)NC(=O)CNC(=O)CNC(=O)CNC(=O)[C@H](C)NC(=O)[C@H](CCC(=O)O)NC(=O)[C@H](CC(N)=O)NC(=O)[C@H](C)NC(=O)[C@H](C)NC(=O)[C@H](CC(=O)O)NC(C)=O)C(=O)N[C@@H](CCCNC(=N)N)C(=O)N[C@@H](CCCCN)C(=O)N[C@@H](Cc1ccccc1)C(=O)N[C@@H](CC(C)C)C(=O)N[C@@H](CCCCN)C(=O)N[C@@H](CCCCN)C(=O)N[C@@H](Cc1c[nH]c2ccccc12)C(=O)N[C@@H](CC(C)C)C(=O)N[C@@H](CC(C)C)C(N)=O [BL(KH)-20] (HELM PEPTIDE1{[ac].D.A.A.N.E.A.G.G.G.K.[O=C(CCCCCCCN[*:1])[*:2]].F.I.R.K.F.L.K.K.W.L.L.[am]}|PEPTIDE2{K.K.H.R.K.H.R.K.H.R.K.H.G.G.G}$PEPTIDE1,PEPTIDE2,11:R3-15:R2$$$V2.0)
recoverable S. mutans cfu/mL in mixed culture (in words) (S. mutans [2]): higher than input cfu/mL
recoverable P. aeruginosa cfu/mL in mixed culture (in words) (P. aeruginosa [3]): not observed
recoverable E. coli cfu/mL in mixed culture (in words) (E. coli [4]): unchanged numbers
recoverable S. epidermidis cfu/mL in mixed culture (in words) (S. epidermidis [5]): unchanged numbers
S. mutans growth after treatment (culture recovery, OD600) (S. mutans [6]): not altered

CC[C@H](C)[C@H](NC(=O)[C@H](Cc1ccccc1)NC(=O)CNC(=O)CNC(=O)CNC(=O)[C@H](Cc1ccccc1)NC(=O)[C@H](Cc1c[nH]cn1)NC(=O)[C@H](CC(C)C)NC(=O)[C@H](Cc1c[nH]cn1)NC(=O)[C@H](Cc1ccccc1)NC(=O)[C@H](Cc1c[nH]cn1)NC(=O)[C@H](Cc1ccccc1)NC(=O)c1ccccc1)C(=O)N[C@@H](CCCCN)C(=O)N[C@@H](Cc1c[nH]cn1)C(=O)N[C@@H](Cc1ccccc1)C(=O)N[C@H](C(=O)N[C@@H](Cc1c[nH]cn1)C(=O)N[C@@H](CCCNC(=N)N)C(=O)N[C@@H](Cc1ccccc1)C(N)=O)[C@@H](C)CC [bz135(L1)2_1, benzoate-FHFHLHFGGGFIKHFIHRF] (HELM PEPTIDE1{[O=C(c1ccccc1)[*:2]].F.H.F.H.L.H.F.G.G.G.F.I.K.H.F.I.H.R.F.[am]}$$$$V2.0)
S. mutans (MIC) (S. mutans [1]; [11]): 32 µg/mL

Ac-FHFHLHFGGGFIKHFIHRF-NH2 [Ac135(L1)2_1, Ac-FHFHLHFGGGFIKHFIHRF]
S. mutans (MIC) (S. mutans [1]): 32 µg/mL

DAANEA-GGG (DAANEAGGG; synthetic BL-1 peptide with no bacterial binding)
bacterial binding (bacteria): no bacterial binding

EIPIQLANDLANYYDISLDSIFFW [G-4]
Organism, effect (S. mutans) (S. mutans [7]): Biofilm structure

FHFHLHF (not fully specified (C-terminus)) [PL-135]
activity against S. mutans relative to progeny STAMPs (S. mutans [1]; FIG. 17 and Table 16): 2 to 4 fold

FHFHLHFAAAFIKHFIHRF-NH2 [135(L2)2_1, FHFHLHFAAAFIKHFIHRF]
S. mutans (MIC) (S. mutans [1]): 16 µg/mL

FHFHLHFAGAFIKHFIHRF-NH2 [135(L13)2_1, FHFHLHFAGAFIKHFIHRF]
S. mutans (MIC) (S. mutans [1]): 32 µg/mL

FHFHLHFGAGAGFIKHFIHRF-NH2 [135(L14)2_1]
S. mutans (MIC) (S. mutans [1]): 32 µg/mL

FHFHLHFGGGFIKHFIHRF-NH2 [135(L1)2_1, FHFHLHFGGGFIKHFIHRF]
S. mutans (MIC) (S. mutans [1]): 16 µg/mL
concentration active against S. mutans (MIC) (S. mutans [1]): lower than 100 μg/mL

FHFHLHFGGGGFIKHFIHRF-NH2 [135(G4)2_1]
S. mutans (MIC) (S. mutans [1]): 16 µg/mL

FHFHLHFGGGGGFIKHFIHRF-NH2 [135(G5)2_1]
S. mutans (MIC) (S. mutans [1]): 16 µg/mL

FHFHLHFGGGGGGFIKHFIHRF-NH2 [135(G6)2_1]
S. mutans (MIC) (S. mutans [1]): 32 µg/mL

FHFHLHFGGGGGGGFIKHFIHRF-NH2 [135(G7)2_1]
S. mutans (MIC) (S. mutans [1]): 32 µg/mL

FHFHLHFGSGSGFIKHFIHRF-NH2 [135(L12)2_1]
S. mutans (MIC) (S. mutans [1]; [11]): 32 µg/mL

FHFHLHFSGSFIKHFIHRF-NH2 [135(L11)2_1, FHFHLHFSGSFIKHFIHRF]
S. mutans (MIC) (S. mutans [1]; [11]): 32 µg/mL

FHLHFHFGGGFRHIFHKIF-NH2 [135i(L1)2_1i, FHLHFHFGGGFRHIFHKIF]
S. mutans (MIC) (S. mutans [1]): 16 µg/mL

FIKHFIHRF [2_1]
binding to S. mutans biofilms (S. mutans biofilms): retain biofilm binding

FIRKFLKKWLL-NH2 [BD2.20, FIRKFLKKWLL]
E. coli growth after treatment (culture recovery, OD600) (E. coli [8]): inhibited
S. aureus growth after treatment (culture recovery, OD600) (S. aureus): inhibited
recoverable S. mutans cfu/mL in mixed culture (in words) (S. mutans [2]): significant loss of recoverable cfu/mL
recoverable P. aeruginosa cfu/mL in mixed culture (in words) (P. aeruginosa [3]): significant loss of recoverable cfu/mL
recoverable E. coli cfu/mL in mixed culture (in words) (E. coli [4]): significant loss of recoverable cfu/mL
recoverable S. epidermidis cfu/mL in mixed culture (in words) (S. epidermidis [5]): significant loss of recoverable cfu/mL
S. mutans growth after treatment (culture recovery, OD600) (S. mutans [6]): robust antimicrobial activity
P. aeruginosa growth after treatment (culture recovery, OD600) (P. aeruginosa [9]): robust antimicrobial activity
S. epidermidis growth after treatment (culture recovery, OD600) (S. epidermidis [10]): inhibited

FRHIFHKIFGGGFHLHFHF-NH2 [2_1i(L1)135i, FRHIFHKIFGGGFHLHFHF]
S. mutans (MIC) (S. mutans [1]): 16 µg/mL

LIKHILHRL [3_1]
binding to S. mutans biofilms (S. mutans biofilms): retain biofilm binding

WWHSWWSTW [1_2]
binding to S. mutans biofilms (S. mutans biofilms): retain biofilm binding

WWKDWWERW [1_4]
binding to S. mutans biofilms (S. mutans biofilms): retain biofilm binding

WWQDWWNEW [1_6]
binding to S. mutans biofilms (S. mutans biofilms): retain biofilm binding

WWSYWWTQW [1_3]
binding to S. mutans biofilms (S. mutans biofilms): retain biofilm binding

— patent US8389679B2, “Targeted antimicrobial moieties” (priority 2009, dated 2013)
